Test system: IL-1beta production in mouse microglial cell line
Assay: Interleukin-1β microglial cell assay
Type: cell-based
Conditions: LPS 10 μg/ml and IFN gamma 10 ng/ml, 24 hours, read-out: EC50, inhibition of IL-1beta production
Description: This assay measures the release of IL-1β from a mouse microglial cell line following an inflammatory challenge with LPS and interferon-gamma. The ability of test articles to inhibit microglial cell activation and IL-1β release is determined by co-incubation of the test article with the inflammatory challenge.
Mouse microglial cells were seeded in poly-D-lysine coated 96-well plates at a density of 10,000 cells/well and allowed to attach for 24 hours. Cells were stimulated by addition of LPS (10 μg/ml) and IFN gamma (10 ng/ml) in the presence or absence of test article. The cells were then incubated for 24 hours at 37° C., after which time the media was removed and used for cytokine determination as described below.
Viability of mouse microglial cells after exposure to the test article was determined using a fluorescent viability dye, Cell Tracker Green. Cell Tracker Green was used at a working concentration of 5 μM in 1×HBSS. Cells were washed once with HBSS (200 μl/well) and 100 μl Cell Tracker Green was added to each well. Cells were then incubated at 37° C. for 30 minutes, after which time the Cell Tracker was removed and the cells were washed once with HBSS (200 μl/well). 100 μl fresh HBSS was added to each well and the plate was read on a Fluoroskan plate reader using an excitation wavelength of 485 nm and an emission wavelength of 538 nm.
Solutions: • Wash Buffer: PBS 1 L+500 μl Tween 20 (final 0.05%) pH 7.2-7.4. • Blocking Buffer: 500 ml PBS+5 g BSA V (1%)+25 g Sucrose (5%)+0.25 g Sodium Azide (0.05%). • Reagent Diluent: 500 ml PBS+5 g BSA V (1%) pH 7.2-7.4 and filter sterilize through 0.2 μm. • Stop Solution: 2N sulfuric acid.
Duo Set Preparations: • 1. The IL-1β capture antibody was reconstituted in 1 ml of PBS to give a final concentration of 720 μg/ml, and the working concentration was 4 μg/ml. For coating one 96-well plate (at 100 μl/well) 56 μl of the 720 μg/ml stock was diluted into 10 ml of PBS. • 2. The IL-1β standards were reconstituted in 0.5 ml of Reagent Diluent (70 ng/ml). For a high standard of 1 ng/ml (2 wells at 100 μl each+enough for series dilution) 7.1 μl of the 70 ng/ml standard were diluted into 0.5 ml of Reagent Diluent • 3. The IL-1β detection antibody was reconstituted in 1 ml of Reagent Diluent to give a final concentration of 18 μg/ml and the working concentration is 100 ng/ml. For one 96-well plate (at 100 μl/well) 56 μl of the 18 μg/ml stock was diluted into 10 ml of Reagent Diluent.
• The Costar EIA Hi-binding plate was coated with capture antibody at 4 μg/ml. Each well was coated with 100 μl, and the plate was sealed and incubated overnight at room temperature. • Each well was aspirated and washed 3× with Wash Buffer. Each well was filled to the top, dispensed, and any remaining buffer was removed by inverting the plate and gently blotting against clean paper towels. • Non-specific binding sites were blocked by adding 300 μl of Blocking Buffer to each well, and after sealing incubating for at least 1 hour at room temperature. • After washing the plate was now ready for the samples. Assay Procedure: • 100 μl of either standard or sample were added in each well of the capture-coated and pre-blocked plate. The plate was sealed and incubated for 2 hours at room temperature, followed with washing. • 100 μl of the detection antibody (10 ng/ml) were added to each well. […]

Row | SMILES | EC50
1 | CC(C)=CCc1c(O)c2c(c3c1CCC(C)(C)O3)C1CCC2C1 (centres unmarked) [2,2-Dimethyl-5-(3-methyl-but-2-enyl)-3,4,7,8,9,10-hexahydro-7,10-methano-2H-benzo[h]chromen-6-ol] | ≤ 20 µM
2 | CC(C)CCc1c(O)c2c(c3c1CCC(C)(C)O3)C1CCC2C1 (centres unmarked) [2,2-Dimethyl-5-(3-methyl-butyl)-3,4,7,8,9,10-hexahydro-7,10-methano-2H-benzo[h]chromen-6-ol] | ≤ 20 µM

Reference: US7875607B2, “7,8-bicycloakyl-chroman derivatives” (Ampere Life Sciences, Inc., priority 2004, dated 2011)
